According to article PMC8158844 (ACS Omega, 2021):
Values joined by “and” are separate entries in the source; they are usually repeats but may differ in a detail not shown here. Identical values can stand only once. Marks after values point to notes of the source that are not given here.

Key:
human recombinant MAGL = target: T1, human recombinant MAGL (Homo sapiens, UniProt Q99685); test: Inhibition of monoacylglycerol lipase; type: biochemical
T1 sequence (Q99685 1-303): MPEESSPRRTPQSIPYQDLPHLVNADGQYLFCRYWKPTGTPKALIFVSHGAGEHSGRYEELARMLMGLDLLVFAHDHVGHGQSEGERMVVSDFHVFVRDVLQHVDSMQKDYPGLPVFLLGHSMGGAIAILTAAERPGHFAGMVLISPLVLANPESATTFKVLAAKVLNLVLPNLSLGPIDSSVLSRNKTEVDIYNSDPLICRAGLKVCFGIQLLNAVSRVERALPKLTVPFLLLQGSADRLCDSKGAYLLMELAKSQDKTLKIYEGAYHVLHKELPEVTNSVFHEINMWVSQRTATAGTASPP

porcine albumin [1] = target: T2, porcine albumin (Sus scrofa, UniProt P08835); test: Stability in porcine albumin solution; type: in vitro ADME; conditions: porcine albumin 17.5 mg/mL in PBS; 30 min, 37 °C
[2] = Metabolic stability in porcine liver S9 fraction; type: in vitro ADME; conditions: 30 min; for stability porcine liver S9 fractions (percent of parent remaining): 37 °C, no NADPH added; for stability in the absence of BNNP (percent of parent remaining) / stability in the presence of BNNP (percent of parent remaining): porcine liver homogenate; for stability in the presence of BNNP (percent of parent remaining): carboxylesterase 1 inhibitor BNPP 1 mM
[3] = Metabolic stability in porcine blood plasma; type: in vitro ADME; conditions: for stability porcine blood plasma (percent of parent remaining): Table 3, 30 min, 37 °C, n = 3 unless otherwise stated; for metabolic stability porcine plasma (percent of parent remaining): Table 1, 30 min incubation, n = 3
FAAH = target: T3, FAAH (Rattus norvegicus, UniProt P97612); test: Inhibition of fatty acid amide hydrolase; type: biochemical
T3 sequence (P97612 1-579): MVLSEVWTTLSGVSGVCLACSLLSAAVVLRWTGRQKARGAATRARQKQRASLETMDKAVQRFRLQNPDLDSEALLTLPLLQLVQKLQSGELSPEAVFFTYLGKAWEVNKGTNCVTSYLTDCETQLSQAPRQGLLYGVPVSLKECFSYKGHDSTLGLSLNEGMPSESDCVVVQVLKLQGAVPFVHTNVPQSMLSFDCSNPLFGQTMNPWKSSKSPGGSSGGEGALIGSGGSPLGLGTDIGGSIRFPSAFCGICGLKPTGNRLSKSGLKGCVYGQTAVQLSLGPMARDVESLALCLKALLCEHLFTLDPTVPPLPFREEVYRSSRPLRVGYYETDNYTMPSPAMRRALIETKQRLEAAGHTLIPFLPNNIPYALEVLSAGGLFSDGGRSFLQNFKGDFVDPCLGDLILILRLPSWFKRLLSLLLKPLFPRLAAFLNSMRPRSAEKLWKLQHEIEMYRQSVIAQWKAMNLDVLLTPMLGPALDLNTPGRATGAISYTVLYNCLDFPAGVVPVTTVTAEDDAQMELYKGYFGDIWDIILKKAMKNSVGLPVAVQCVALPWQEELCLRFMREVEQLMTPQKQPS

[4] = Chemical stability in aqueous solution; type: physicochemical; conditions: PBS buffer pH 7.4 with 0.2% Triton X-100; 60 min, 37 °C
porcine albumin [5] = target: T2, porcine albumin; test: Reaction with porcine albumin investigated by MS; conditions: 60 min, 37 °C; molar ratio compound/albumin 4:1
BuChE = BuChE (Equus caballus, UniProt P81908); test: Inhibition of butyrylcholinesterase; type: biochemical, horse; conditions: read-out: BuChE inhibition at 10 μM
[6] = Metabolic stability in rat liver S9 fraction; type: in vitro ADME; conditions: 30 min incubation in the presence of NADPH

Sequence of BuChE (P81908 whole entry): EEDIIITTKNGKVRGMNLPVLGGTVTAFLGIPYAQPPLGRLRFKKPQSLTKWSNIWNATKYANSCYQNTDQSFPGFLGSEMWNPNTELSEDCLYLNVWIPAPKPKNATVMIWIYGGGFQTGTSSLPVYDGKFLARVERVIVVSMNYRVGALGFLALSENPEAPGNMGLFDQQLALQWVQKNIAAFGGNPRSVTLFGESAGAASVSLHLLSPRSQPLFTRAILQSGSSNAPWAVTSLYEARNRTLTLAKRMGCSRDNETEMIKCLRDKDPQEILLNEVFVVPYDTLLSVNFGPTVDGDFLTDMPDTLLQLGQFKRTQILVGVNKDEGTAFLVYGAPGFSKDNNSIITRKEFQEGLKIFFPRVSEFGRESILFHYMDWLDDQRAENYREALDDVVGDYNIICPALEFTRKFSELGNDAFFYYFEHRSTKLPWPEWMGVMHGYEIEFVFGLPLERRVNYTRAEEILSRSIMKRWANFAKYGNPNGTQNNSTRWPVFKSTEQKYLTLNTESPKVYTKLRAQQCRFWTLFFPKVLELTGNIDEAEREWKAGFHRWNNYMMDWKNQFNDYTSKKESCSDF
T2 sequence (P08835 25-607): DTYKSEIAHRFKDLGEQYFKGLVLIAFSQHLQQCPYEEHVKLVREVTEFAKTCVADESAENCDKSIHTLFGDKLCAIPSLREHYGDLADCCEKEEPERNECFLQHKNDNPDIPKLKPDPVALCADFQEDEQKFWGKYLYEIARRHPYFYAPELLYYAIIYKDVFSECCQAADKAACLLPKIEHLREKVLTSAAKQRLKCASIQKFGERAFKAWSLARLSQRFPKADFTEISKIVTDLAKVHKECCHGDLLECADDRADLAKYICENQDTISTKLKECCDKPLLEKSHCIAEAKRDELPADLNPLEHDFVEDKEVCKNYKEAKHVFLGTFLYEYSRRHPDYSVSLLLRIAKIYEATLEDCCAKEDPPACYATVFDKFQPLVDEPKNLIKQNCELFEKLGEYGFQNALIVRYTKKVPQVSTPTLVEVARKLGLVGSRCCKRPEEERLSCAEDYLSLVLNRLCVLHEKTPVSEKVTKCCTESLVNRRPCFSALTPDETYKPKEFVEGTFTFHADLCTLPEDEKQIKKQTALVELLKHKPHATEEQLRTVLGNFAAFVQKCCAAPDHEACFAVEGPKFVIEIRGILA

SMILES	IC50 (human recombinant MAGL) [nM]	stability porcine albumin solution (percent of parent remaining) (porcine albumin [1])	stability porcine liver S9 fractions (percent of parent remaining) [2] [%]	stability in the absence of BNNP (percent of parent remaining) [2] [%]	stability in the presence of BNNP (percent of parent remaining) [2] [%]	stability porcine blood plasma (percent of parent remaining) [3] [%]	IC50 (FAAH) [nM]	stability in PBS buffer (percent of parent remaining) [4] [%]	number of carbamate molecules bound to albumin in the most intense MS signal (porcine albumin [5])	inhibition at 10 µM (BuChE) [%]	decrease in FAAH inhibitory activity compared with compound 14 (FAAH; ratio of FAAH IC50 values)	metabolic stability porcine plasma (percent of parent remaining) [3] [%]	metabolic stability rat liver S9 fraction (percent of parent remaining) [6] [%]
Cc1ccncc1OC(=O)NCCCCCn1ccc2ccc(F)cc21 [Compound 46, 4-Methylpyridin-3-yl N-[5-(6-fluoroindol-1-yl)pentyl]carbamate]	150	68% and 68 ± 6%	56 ± 8	56 ± 8	76 ± 5	8 ± 2	3	74 ± 4	dual	–	–	–	–
NC(=O)c1cccc(-c2cccc(OC(=O)NC3CCCCC3)c2)c1 [URB597 (1), reference compound]	–	95 ± 7%	80 ± 4	–	–	–	–	>95	–	35	–	–	–
O=C(O)Cc1ccccc1OC(=O)NCCCCCn1ccc2ccc(F)cc21 [Compound 43]	–	89 ± 3%	82 ± 5	–	–	89 ± 1	4200	>95	–	34	more than 100 fold	–	–
Cc1cncc(OC(=O)NCCCCCn2ccc3ccc(F)cc32)c1 [Compound 47]	150	37% and 37 ± 4%	57 ± 5	–	–	<5	2	72 ± 4	three	–	–	–	–
O=C(NCCCCCn1ccc2ccc(F)cc21)Oc1ccccc1 [Compound 14, Phenyl N-[5-(6-Fluoroindol-1-yl)pentyl]carbamate]	–	93 ± 6^n = 6%	–	76 ± 2	87 ± 9	–	29	>95	–	–	–	80 ± 6	66 ± 8
CNC(=O)Oc1ccc2c(c1)[C@]1(C)CCN(C)[C@@H]1N2C [physostigmine, reference compound]	–	>95%	57 ± 4	–	–	>95	–	>95	–	–	–	>95	76 ± 7
O=C(O)Cc1ccc(OC(=O)NCCCCCn2ccc3ccc(F)cc32)cc1 [Compound 39, 2-[4-({[5-(6-Fluoroindol-1-yl)pentyl]carbamoyl}oxy)phenyl]acetic Acid]	–	>95%	85 ± 3	–	–	88 ± 4	14	>95	–	38	–	–	–
